Literature values as cited in patent publication US20100151107A1, “EXTRACTION METHOD FOR THE CLASSIFIED EXTRACTION AND SEPARATION OF VEGETABLE COMPONENT MATERIALS, AND THE APPLICATION THEREOF” (priority 2006, published 2010).

Legend:
healthy cells = details: all hitherto described in-vitro experiments
[1] = rats; dose 1.000 mg xanthohumol per kg body weight
[2] = in-vitro; against osteoporosis, arteriosclerosis, diseases of the coronary vessels, heart attack and stroke
[3] = test system: 60 different human tumour-cell lines; details: 60 different human tumour-cell lines (leukaemia, lung cancer, large intestine, melanoma, breast cancer)
[4] = test system: isolated mouse mammary gland cells; details: MMOC-test; versus resveratrol isolated from red vine

In the case of COc1cc(O)c(CC=C(C)C)c(O)c1C(=O)/C=C/c1ccc(O)cc1 [Xanthohumol, xanthohumol], the “cytotoxic effect against healthy cells” value (healthy cells) is listed as “no cytotoxic effect”, the toxic effect [1] is listed as “no toxic effect” and the preventive effect [2] is listed as “preventive effect”. The “growth inhibiting and cytotoxic effect” value [3] was “growth inhibiting and cytotoxic effect” and the “effectiveness relative to resveratrol” value [4] was “more than 200 fold”.
